Laboratory results taken from patent US5561113A, “New pseudopeptide compounds of neurokinins” (priority 1994, dated 1996).
Structures can show the parent of a compound that is named as a salt.

Key:
human receptors NK1 = target: T1, human receptors NK1 (Homo sapiens, UniProt P25103); test: Affinity for the human NK1 receptor on IM-9 lymphoblasts; type: binding; details: human lymphoblasts IM-9 expressing NK1
T1 construct: human lymphoblasts IM-9 specifically expressing the NK1 receptor; endogenous in cells; host or cells: IM-9 human lymphoblasts
From the text: (§1) The affinity for the human receptors NK1 and NK2 was studied on the human lymphoblasts IM-9 specifically expressing the NK1 receptor as described by D. G. PAYAN et al. (J. Biol. Chem. 1986, 261, 14321-14329)and on CHO-K1 cells transfected with the NK2 receptor based on the "CellPhect transfection" kit (Pharmacia).

human receptors NK2 = target: T2, human receptors NK2 (Homo sapiens, UniProt P21452); test: Affinity for the human NK2 receptor on transfected CHO-K1 cells; type: binding; details: CHO-K1 cells transfected with NK2 receptor
T2 construct: expressed in transfected cells; host or cells: CHO-K1
T2 sequence (P21452 1-398): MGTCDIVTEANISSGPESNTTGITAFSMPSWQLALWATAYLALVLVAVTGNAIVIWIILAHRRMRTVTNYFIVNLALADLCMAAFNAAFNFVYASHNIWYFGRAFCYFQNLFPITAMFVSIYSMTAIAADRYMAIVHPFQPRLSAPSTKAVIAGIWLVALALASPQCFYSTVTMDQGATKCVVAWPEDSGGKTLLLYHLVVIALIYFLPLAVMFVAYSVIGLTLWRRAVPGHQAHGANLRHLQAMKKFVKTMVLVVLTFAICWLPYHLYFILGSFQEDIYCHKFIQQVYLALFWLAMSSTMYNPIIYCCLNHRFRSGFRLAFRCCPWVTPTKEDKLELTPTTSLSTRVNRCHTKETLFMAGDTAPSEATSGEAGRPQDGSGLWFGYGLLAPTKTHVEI
From the text: as §1

NK1 receptors = target: T3, NK1 receptors (Oryctolagus cuniculus, UniProt G1SEI7); test: Isolated smooth muscle: rabbit vena cava (RVC), NK1-mediated contraction; type: biochemical
T3 construct: three preparations isolated from smooth muscle were used; from tissue; host or cells: rabbit vena cava
From the text: (§2) In order to evaluate the functional activity of the compounds of the invention as antagonists of neurokinins, three preparations isolated from smooth muscle were used: rabbit vena cava (RVC), endothelium-free rabbit pulmonary artery (RPA) and rat portal vein (RatPV) whose contractile responses are respectively mediated by the NK1, NK2 and NK3 receptors as indicated by D. JUKIC et al. (Life Sci. 1991, 49, 1463-1469).
(§3) The antagonistic power of the compounds of the invention was expressed in the form of pA2 as defined by O. […] and H. O. SCHILD (Brit. J. Pharmacol. 1959, 14, 48-58).

NK2 receptors = target: T4, NK2 receptors (Oryctolagus cuniculus, UniProt P79218); test: Isolated smooth muscle: endothelium-free rabbit pulmonary artery (RPA), NK2-mediated contraction; type: biochemical
T4 construct: three preparations isolated from smooth muscle were used; from tissue; host or cells: endothelium-free rabbit pulmonary artery
T4 sequence (P79218 1-384): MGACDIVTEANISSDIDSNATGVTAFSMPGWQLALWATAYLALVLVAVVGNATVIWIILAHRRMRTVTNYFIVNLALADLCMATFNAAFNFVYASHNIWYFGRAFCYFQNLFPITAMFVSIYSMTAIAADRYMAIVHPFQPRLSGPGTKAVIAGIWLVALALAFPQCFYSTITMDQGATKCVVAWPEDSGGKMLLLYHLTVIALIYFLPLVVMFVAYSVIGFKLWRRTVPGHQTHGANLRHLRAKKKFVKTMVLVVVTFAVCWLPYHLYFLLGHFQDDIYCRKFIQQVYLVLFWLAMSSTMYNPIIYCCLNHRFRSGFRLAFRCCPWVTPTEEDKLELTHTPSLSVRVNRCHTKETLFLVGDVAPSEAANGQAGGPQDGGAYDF
From the text: as §2, §3

NK3 receptors = target: T5, NK3 receptors (Rattus norvegicus, UniProt P16177); test: Isolated smooth muscle: rat portal vein (RatPV), NK3-mediated contraction; type: biochemical
T5 construct: three preparations isolated from smooth muscle were used; from tissue; host or cells: rat portal vein
T5 sequence (P16177 1-452): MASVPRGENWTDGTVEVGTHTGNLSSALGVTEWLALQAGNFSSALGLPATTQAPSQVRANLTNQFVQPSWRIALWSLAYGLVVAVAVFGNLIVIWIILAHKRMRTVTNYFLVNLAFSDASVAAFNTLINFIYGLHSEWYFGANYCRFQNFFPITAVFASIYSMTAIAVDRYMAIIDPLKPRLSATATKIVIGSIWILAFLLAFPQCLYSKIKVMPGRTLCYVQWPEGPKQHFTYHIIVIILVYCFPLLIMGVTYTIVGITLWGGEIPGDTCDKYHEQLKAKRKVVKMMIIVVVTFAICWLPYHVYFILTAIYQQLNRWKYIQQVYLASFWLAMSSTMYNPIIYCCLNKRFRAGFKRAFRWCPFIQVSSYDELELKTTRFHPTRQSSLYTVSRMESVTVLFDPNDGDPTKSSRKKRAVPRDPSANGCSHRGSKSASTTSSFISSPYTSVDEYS
From the text: as §2, §3

mice (CD1 male) = test: animal or person; type: in vivo; details: iv
guinea pigs = test: Inhibition of plasma extravasation induced by substance P in guinea pig bladder; type: in vivo; details: 0.1 mg/kg intravenously 5 minutes before substance P (1 μg/kg iv)
Experimental: The effect of the compounds on plasma extravasation caused by intravenous injection of substance P (1 μg/kg) in guinea pigs was evaluated on the bladder, according to the method described for rats by C. GARRET et al. (Proc. Natl. Acad. Sci., USA 1991, 88, 10208-20212). Vesical accumulation of Evans blue injected IV at the same time as substance P and 10 minutes before sacrificing, was quantified by spectrophotometry after extraction of the colorant with acetone. The inhibitory activity of the compounds administered intravenously 5 minutes before substance P was expressed as % inhibition compared with a control batch (8 animals per batch).

male Hartley guinea pigs = test: Inhibition of bronchoconstriction induced by substance P in guinea pigs; type: in vivo; details: dose of 1 μmol/kg i.v.
Experimental: The study is carried out on male Hartley guinea pigs (Charles River) of a mean weight of 300 to 400 g. […] The animals were pretreated with pyrilamine (1 mg/kg iv), propanolol (1 mg/kg iv). The criterion for assessing the bronchoconstriction is the increase in the tracheal insufflation pressure (TIP) induced by the injection of substance P via the iv route at the dose of 2 nM/kg iv, each animal being its own control. The injection of the test product being carried out relative to the time TO injection of the product. The results are expressed as percentage inhibition of the substance P-induced bronchoconstriction, this percentage being calculated according to the following formula: (ΔTIP before product-ΔTIP after product)/ΔTIP before product (expressed as percentage).

[1] = system: peritoneal mast cells of male rats; test: Mast cell degranulation in vitro (histamine release); type: cell-based; details: rat peritoneal mast cells, 20 min incubation, up to the concentration of 10^-4 M
Experimental: The studies are carried out on peritoneal mast cells of male rats: Sprague-Dawley of mean weight 350 to 400 g and are killed by euthanasia by inhalation of CO2. A peritoneal lavage is carried out with 20 ml of buffer (NaCl 150 mM, KCl 2.7 mM, CaCl2, 0.9 mM, Na2 HPO4, 3 mM, KH2 PO4, 3.5 mM, glucose 5.6 mM, bovine serum albumin 1 mg/ml, pH 6.8).
The lavage liquid is centrifuged at 400 g for 10 min at 4° C. and taken up in a buffer at a density of 2×10^4 mast cells/mi. The compounds are incubated at an increasing concentration for 20 min. The reaction is stopped by placing the tubes on ice and a centrifugation is carried out with 700 g for 10 min at 4° C. The supernatant and the pellet are tested by fluorimetry after condensation with o-phthaldehyde. The histamine released from the cells into the supernatant thus assayed is expressed as percentage of the total histamine content of the cells.

T1 sequence (P25103 whole entry): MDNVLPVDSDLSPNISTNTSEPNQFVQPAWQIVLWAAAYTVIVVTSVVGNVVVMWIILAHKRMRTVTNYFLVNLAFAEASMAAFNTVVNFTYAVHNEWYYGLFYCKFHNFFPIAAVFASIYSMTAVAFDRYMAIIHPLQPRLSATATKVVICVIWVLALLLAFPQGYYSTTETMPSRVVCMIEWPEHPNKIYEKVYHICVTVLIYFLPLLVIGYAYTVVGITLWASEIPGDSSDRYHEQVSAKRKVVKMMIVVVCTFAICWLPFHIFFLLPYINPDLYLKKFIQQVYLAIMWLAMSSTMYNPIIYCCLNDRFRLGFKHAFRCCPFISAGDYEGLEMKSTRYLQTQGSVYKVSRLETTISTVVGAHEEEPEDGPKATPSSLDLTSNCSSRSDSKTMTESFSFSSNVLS
T3 sequence (G1SEI7 1-407): as the sequence (P25103 whole entry) above, with S12F, N189D, P369A, D371E, T376N, C386G, D391N, S402Y, V405M counted along it

Structure (SMILES): CN(Cc1ccccc1)C(=O)C(CC1CCc2ccccc2C1)NC(=O)C1CC(O)CN1C(=O)c1cn(CCCCc2nn[n-]n2)c2ccccc12.[K+] (mixture of isomers) [Example 3, {1-[4-(1H-tetrazol-5-yl)butyl]indol-3-yl}carbonyl-Hyp-Thn-NMeBzl, potassiu m salt]
- Ki (human receptors NK1): 14 nM
- Ki (human receptors NK2): 1400 nM
- NK1 (VCL) pA2 (NK1 receptors): 7.87
- NK2 (APL) pA2 (NK2 receptors): 5.87
- NK3 (VPR) pA2 (NK3 receptors): 5.87

Structure (SMILES): CN(Cc1ccccc1)C(=O)C(Cc1ccc2ccccc2c1)NC(=O)C1CC(O)CN1C(=O)c1cn(CCCCc2nn[n-]n2)c2ccccc12.[K+] (stereo not drawn) [Example 1, {1-[4-(1H-tetrazol-5-yl)butyl]indol-3-yl}carbonyl-Hyp-Nal-NMeBzl, potassiu m salt]
- Ki (human receptors NK2): 2400 nM
- NK1 (VCL) pA2 (NK1 receptors): 9.57
- NK2 (APL) pA2 (NK2 receptors): 5.57
- NK3 (VPR) pA2 (NK3 receptors): 4.96
- ED50 (dose which increases the reaction time by 50%) (mice (CD1 male); mouse, in vivo): 0.018 mg/kg
- % inhibition of substance P-induced plasma extravasation (bladder) (guinea pigs): 56%
- % Inhibition of substance P-induced bronchoconstriction (male Hartley guinea pigs): 95%
- Mast cell degranulation (histamine release) [1]: does not cause mast cell degranulation

Structure (SMILES): CN(Cc1ccccc1)C(=O)C(Cc1ccc2c(c1)CCCC2)NC(=O)C1CC(O)CN1C(=O)c1cn(CCCCc2nn[n-]n2)c2ccccc12.[K+] (stereo not drawn) [Example 2, {1-[4-(1H-tetrazol-5-yl)butyl]indol-3-yl}carbonyl-Hyp-Tna-NMeBzl, potassiu m salt]
- Ki (human receptors NK1): 14 nM
- Ki (human receptors NK2): 3600 nM
- NK1 (VCL) pA2 (NK1 receptors): 8.17
- NK2 (APL) pA2 (NK2 receptors): 6.47
- NK3 (VPR) pA2 (NK3 receptors): 5.87

Structure (SMILES): CN(Cc1ccccc1)C(=O)C(Cc1ccc2ccccc2c1)NC(=O)C1CC(O)CN1C(=O)c1cn(Cc2nn[n-]n2)c2ccccc12.[K+] (stereo not drawn) [Example 4, {1-[(1H-tetrazol-5-yl)methyl]indol-3-yl}carbonyl-Hyp-Nal-NMeBzl,potassium salt]
- Ki (human receptors NK1): 0.78 nM
- Ki (human receptors NK2): > 1000 nM
- NK1 (VCL) pA2 (NK1 receptors): 8.14
- NK3 (VPR) pA2 (NK3 receptors): 5.84
- % Inhibition of substance P-induced bronchoconstriction (male Hartley guinea pigs): 61%

Structure (SMILES): CN(Cc1ccccc1)C(=O)C(Cc1ccc2ccccc2c1)NC(=O)C1CC(O)CN1C(=O)c1cn(CCc2nn[nH]n2)c2ccccc12 (stereo not drawn) [Example 5, {1-[2-(1H-tetrazol-5-yl)ethyl]indol-3-yl}carbonyl-Hyp-Nal-NMeBzl, potassiu m salt]
- Ki (human receptors NK1): 0.63 nM
- Ki (human receptors NK2): > 10000 nM

Structure (SMILES): CN(Cc1ccccc1)C(=O)C(Cc1ccc2ccccc2c1)NC(=O)C1CC(O)CN1C(=O)c1cn(CCCc2nn[n-]n2)c2ccccc12.[K+] (stereo not drawn) [Example 6, [1-[3-(1H-tetrazol-5-yl)propyl]indol-3-yl}carbonyl-Hyp-Nal-NMeBzl, potassium salt]
- Ki (human receptors NK1): 1.2 nM
- Ki (human receptors NK2): > 1000 nM
- NK1 (VCL) pA2 (NK1 receptors): 8.46
- NK2 (APL) pA2 (NK2 receptors): 5.20
- % Inhibition of substance P-induced bronchoconstriction (male Hartley guinea pigs): 60%

Structure (SMILES): CN(Cc1ccccc1)C(=O)C(Cc1ccc2ccccc2c1)NC(=O)C1CC(O)CN1C(=O)c1cn(CCCCCc2nn[n-]n2)c2ccccc12.[K+] (stereo not drawn) [Example 7, {1-[5-(1H-tetrazol-5-yl)pentyl]indol-3-yl}carbonyl-Hyp-Nal-NMeBzl, potassium salt]
- Ki (human receptors NK1): 5.9 nM
- Ki (human receptors NK2): 10000 nM
- NK1 (VCL) pA2 (NK1 receptors): 7.88
- % Inhibition of substance P-induced bronchoconstriction (male Hartley guinea pigs): 58%

Structure (SMILES): CN(Cc1ccccc1)C(=O)C(Cc1cccs1)NC(=O)C1CC(O)CN1C(=O)c1cn(CCCCc2nn[nH]n2)c2ccccc12 (stereo not drawn) [Example 8, {1-[4-(1H-tetrazol-5-yl)butyl]indol-3-yl}carbonyl-Hyp-Thi-NMeBzl, potassiu m salt]
- Ki (human receptors NK1): 110 nM
- Ki (human receptors NK2): > 1000 nM

Structure (SMILES): CN(Cc1ccccc1)C(=O)C(Cc1ccc(Cl)cc1)NC(=O)C1CC(O)CN1C(=O)c1cn(CCCCc2nn[nH]n2)c2ccccc12 (stereo not shown) [Example 9, {1-[4-(1H-tetrazol-5-yl)butyl]indol-3-yl}carbonyl-Hyp-(4-chloro)Phe-NMeBz potassium salt]
- Ki (human receptors NK1): 22 nM
- Ki (human receptors NK2): 3900 nM

Structure (SMILES): COc1ccc(CC(NC(=O)C2CC(O)CN2C(=O)c2cn(CCCCc3nn[nH]n3)c3ccccc23)C(=O)N(C)Cc2ccccc2)cc1OC (stereo not shown) [Example 10, {1-[4-(1H-tetrazol-5-yl)butyl]indol-3-yl}carbonyl-Hyp-(3,4-dimethoxy)Phe-NMeBzl, potassium salt]
- Ki (human receptors NK1): 180 nM
- Ki (human receptors NK2): > 10000 nM

Structure (SMILES): CN(Cc1ccccc1)C(=O)C(CC1CCCCC1)NC(=O)C1CC(O)CN1C(=O)c1cn(CCCCc2nn[nH]n2)c2ccccc12 (stereo not drawn) [Example 11, {1-[4-(1H-tetrazol-5-yl)butyl]indol-3-yl}carbonyl-Hyp-Cha-NMeBzl, potassium salt]
- Ki (human receptors NK1): 52 nM
- Ki (human receptors NK2): > 1000 nM

Structure (SMILES): CN1CC[C@]23c4c5ccc(O)c4O[C@H]2[C@@H](O)C=C[C@H]3[C@H]1C5 [morphine, reference compound]
- ED50 (mice (CD1 male); Mus musculus, read-out: ED50 (dose which increases the reaction time by 50%)): 0.3 mg/kg
